Patent publication US6124456A, “Pyrazolopyridine compound and pharmaceutical use thereof” (Fujisawa Pharmaceutical Co., Ltd., priority 1996, dated 2000)

Test system: human A1 receptor
Test: Adenosine antagonistic activity: radioligand binding with 3H-DPCPX
Conditions: at the dose of 1.0×10^-7 M; radioligand 3H-DPCPX 2×10^-9 M
Source text: Test: Adenosine Antagonistic Activity
The adenosine antagonistic activity of the test compound was examined by radioligand binding techniques using 8-cyclopentyl-1,3-dipropylxanthine, dipropyl-2,3-^3 H(N)] (^3 H-DPCPX, 2×10^-9 M) for human A^1 receptor.

inhibition (%): more than 90%
Structure (SMILES): CN1CCC(n2nc(-c3c(-c4ccccc4)nn4ccccc34)ccc2=O)CC1 [Example 2, 3-[2-(1-methylpiperidin-4-yl)-3-oxo-2,3-dihydropyridazin-6-yl]-2-phenylpyrazolo[1,5-a]pyridine]
